Test results: US8822414B2, “Heterocyclic compounds suitable for the treatment of dyslipidemia” (Cadila Healthcare Limited, priority 2010, dated 2014)

Experiments:
High Fat Diet C57 Mice = assay: LDL-C lowering activity in high fat diet C57 mice; format: in vivo; details: C57 mice on high fat diet, dose 30 mg, orally once a day, day 28 of treatment
Procedure: The in-vivo LDL-c lowering for test compound was tested in C57 mice which were kept on high fat diet for 4 weeks and the blood was collected by retro-orbital sinus puncture method under light ether anesthesia on day 0 (pretreatment). Animal are grouped based on LDL-C levels, after that 4-6 week treatment with vehicle or test compound orally at a dose of 30 mpk dose once a day was given. On completion of treatment on day 28 of the treatment the blood was collected for LDL-C levels measurement. The percent change in LDL-C in test compound group Vs Vehicle group was calculated.

[1] = target: pro-protein convertase of the subtype nine binding to recombinant LDLR-AB domain (Homo sapiens, UniProt Q8NBP7); assay: in vitro quantitative solid phase binding assay (ELISA) of the subtype nine pro-protein convertase to immobilized LDLR; details: for inhibition at 1 µM: Concentration 1 μM; for inhibition at 10 µM: Concentration 10 μM; for inhibition at 100 µM: Concentration 100 μM
Procedure: The in vitro binding assay described hereinafter is a quantitative solid phase binding assay for determining the efficacy of the compounds. Plates were pre-coated with a recombinant LDLR-AB domain, which binds to the gene pro-protein convertase of the subtype nine. Test compound at different concentrations was added to the subtype gene and added to LDLR immobilized on the wells. The amount of bound gene is measured by binding it with biotinylated anti-His-tag monoclonal antibody, followed by binding with horseradish peroxidase conjugated streptavidin substrate. The color was quantified by ELISA reader at […] which reflects the relative amount of “the gene” that binds to LDLR in presence and absence of the inhibitor. EC50 values were calculated by nonlinear regression analysis using graph pad prism software. Each concentration point represents values in duplicates.

pro-protein convertase of the subtype nine binding to recombinant LDLR-AB domain, sequence (Q8NBP7 153-692): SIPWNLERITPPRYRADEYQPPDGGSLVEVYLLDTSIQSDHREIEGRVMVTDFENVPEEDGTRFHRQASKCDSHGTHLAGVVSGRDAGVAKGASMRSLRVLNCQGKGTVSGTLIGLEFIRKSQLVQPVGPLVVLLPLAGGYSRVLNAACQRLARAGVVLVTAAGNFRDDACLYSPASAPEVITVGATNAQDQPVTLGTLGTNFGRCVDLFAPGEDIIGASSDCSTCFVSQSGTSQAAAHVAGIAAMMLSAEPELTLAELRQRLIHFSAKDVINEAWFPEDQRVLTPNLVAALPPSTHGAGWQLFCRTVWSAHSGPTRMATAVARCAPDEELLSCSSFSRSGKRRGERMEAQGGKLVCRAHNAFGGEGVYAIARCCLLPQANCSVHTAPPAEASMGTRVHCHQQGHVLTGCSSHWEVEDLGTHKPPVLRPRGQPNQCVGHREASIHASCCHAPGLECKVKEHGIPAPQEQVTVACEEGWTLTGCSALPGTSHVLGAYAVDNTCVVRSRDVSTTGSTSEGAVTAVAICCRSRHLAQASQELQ
pro-protein convertase of the subtype nine binding to recombinant LDLR-AB domain, sequence (Q8NBP7 31-152 partner limits assumed): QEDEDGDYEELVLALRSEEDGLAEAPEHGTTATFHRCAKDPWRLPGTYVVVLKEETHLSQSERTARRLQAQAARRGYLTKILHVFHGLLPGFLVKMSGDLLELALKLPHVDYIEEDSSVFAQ

Compound	% Change Vs Vehicle Control LDL-C (High Fat Diet C57 Mice)	% Change Vs Vehicle Control TC (High Fat Diet C57 Mice)	inhibition at 1 µM [1]	inhibition at 10 µM [1]	inhibition at 100 µM [1]
CCC(=NOCc1ccc(C(F)(F)F)cc1)c1ccc(OCC(=O)NCC2CCOCC2)nc1 [Example 22, N-((tetrahydro-2H-pyran-4-yl)methyl)-2-((5-(1-(((4-(trifluoromethyl)benzyl)oxy)imino)propyl)pyridin-2-yl)oxy)acetamide]	−64.6 ± 4.1%	−21.5 ± 2.8%	29%	46%	46%
O=C(COc1ccc(C(CO)=NOCc2ccc(C(F)(F)F)cc2)cc1)NCC1CCOCC1 [Example 31, 2-(4-(2-hydroxy-1-(((4-(trifluoromethyl)benzyl)oxy)imino)ethyl)phenoxy)-N-((tetrahydro-2H-pyran-4-yl)methyl)acetamide]	−30.6 ± 3.6%	−3.5 ± 3.4%	15%	20%	29%
